These results are taken from US20030186943A1, “Substituted gamma-phenyl-delta-lactams and uses related thereto” (Inflazyme Pharmaceuticals Ltd., priority 1998, published 2003).

In assay [1] the test system is cAMP Phosphodiesterase 4 from Human U937 Cells. Briefly: Inhibition of cAMP phosphodiesterase 4 from human U937 cells. Type of assay: biochemical. How it is done: PDE's 1 through 4 utilize cAMP as substrate while PDE 5 uses cGMP. […] PDE's for the various assays were partially purified from the following cells/tissues; PDE 1 (bovine heart), PDE 2 (human platelets), PDE 3 (human platelets), PDE 4 (human promonocytic U937 cells) and PDE 5 (human platelets).
Sonicated cell extracts were then centrifuged at 70,000 g for 30 minutes and supernatants removed. Sucrose was added to a final concentration of 0.25 M, aliquoted and stored at −80° C.
PDE reactions were performed for 30 minutes at 37° C. in 20 μL volumes in 1 μM [^3H] cAMP (Amersham website http://www.apbiotech.com), 0.5 U/mL 5′ nucleotidase (Sigma), 50 mM Tris Cl, 10 mM MgCl pH 7.5. U937 extract was added such that less than 10% of substrate was consumed. Test compound or vehicle was added to the desired concentration. […] Reactions were performed in duplicate. Reactions were terminated by addition of 200 μL Dowex 1-8400 Cl^− anion exchange resin in a ratio of 1 resin: 2 methanol: 1H2O. Samples were mixed by inversion and then allowed to settle for 2-3 hours.

A further assay deals with T1, PDE 5 (human platelets) (Homo sapiens, UniProt O76074).
T1 construct: PDE's for the various assays were partially purified from the following cells/tissues; tissue MDS Panlabs (assay service); host or cells: human platelets
Nature of the assay: PDE isozyme specificity: PDE 5. Format: biochemical. The settings on record: for inhibition at 100 µM: read-out: % inhibition by 100 μM test compound 1-25, PDE5, X marks this range. The text has this: Compound 12 was screened for activity against 5 of the major classes of mammalian cyclic nucleotide phosphodiesterase (termed PDE 1 through 5). PDE's 1 through 4 utilize cAMP as substrate while PDE 5 uses cGMP. The broad specificity PDE inhibitor 3-isobutyl-1-methylxanthine (IBMX; Sigma; Catalogue No. 17018)) was used as a positive control in all assays. PDE's for the various assays were partially purified from the following cells/tissues; PDE 1 (bovine heart), PDE 2 (human platelets), PDE 3 (human platelets), PDE 4 (human promonocytic U937 cells) and PDE 5 (human platelets).
Test compounds (at 100 μM) were screened for activity against PDE 1,2 and 5, using standard biochemical methods performed at MDS Panlabs (Bothell, Wash., USA). The broad specificity PDE inhibitor 3-isobutyl-1-methylxanthine (IBMX) was used as a positive control in all assays. PDE's for the various assays were partially purified from the following cells/tissues; PDE 1 (bovine heart), PDE 2 (human platelets) and PDE 5 (human platelets). For purposes of comparison, the effects on PDE3 (human platelets) and PDE4 (human U937 monocytic cell line) described above are presented again in Table 12.

Assay [2] has as its system primary human neutrophils. Nature of the assay: fMLP-induced human neutrophil chemotaxis. Format: cell-based. Conditions: for IC50: fMLP-induced chemotaxis, X marks this range, read-out: IC50 RANGE (μM) 10-100. As for the experimental part:
Chemotaxis buffer containing the chemoattractant fMLP (10 μM) was added to each well of a chemotaxis plate and a filter was inserted ensuring contact between the filter and the chemotaxis buffer in the well. A submaximal concentration of chemoattractant was used which had been determined in previous experiments. […] Freshly isolated neutrophils (1×10^6) were incubated with vehicle (0.125% DMSO)±test compound for 1 hr at 37° C. Treatment and control cell suspensions were then gently resuspended and 20 μL of cells was added to the top side of the filter on each well. The plate was incubated for 1.5 hours at 37° C. under 5% CO2. Cells were then removed from the top side of the filter by aspiration and the entire plate was centrifuged. The filter was removed and known concentrations of cells were added to unused wells to prepare a standard curve. XTT (Sigma; Catalogue No. X 4251)/PMS (Sigma; Catalogue No. P 7626) solution prepared in buffer was added to each well and the cells were further incubated 1-2 hours and measured for absorbance at 450 nm. Absorbance values were converted to cell numbers using the standard curve. IC50 values are averages from at least three separate experiments with triplicate determinations.

In assay [3] the test system is Resiniferitoxin-induced mouse ear edema. Briefly: Resiniferitoxin-induced mouse ear edema. Format: in vivo. Conditions: Mus musculus, CD1 mice; for inhibition in vivo at 100 mg/kg: ip, intraperitoneal administration; for inhibition in vivo at 50 µg/ear: topical administration, 50 μg/ear, RTX 0.1 μg/ear; for inhibition in vivo at 10 mg/kg: oral administration. The text has this:
One of the primary characteristics of inflammation is an increase in vascular dilation and permeability leading to the extravasation of, and collection of fluids in, the interstitium, resulting in redness and swelling. Rheumatoid arthritis in particular is characterized by pronounced edema of affected joints resulting in significant pain and stiffness. The mouse ear inflammation model is a standard in vivo assay for inflammation that is based on an increase in ear weight which is attributable to edema induced by inflammatory mediators. RTX (resiniferitoxin; Sigma; Catalogue No. R 8756)) is a diterpene isolated from the plant Euphorbia poisonii and is an ultrapotent analog of capsaicin. RTX acts by selectively stimulating nociceptive and thermal-sensitive nerve ending in tissue, eliciting neurogenic edema. Compounds of the present invention, whether administered topically, intraperitoneally or orally, inhibited development of edema induced by topical application of RTX.
Mice (CD1, Charles River Laboratories) were separated into groups (n—5−8) and tagged. Control mice had RTX (0.1 μg/ear) applied topically to the inner and outer sides of the left ear and vehicle applied to the right ear as a control. For topical administration, experimental/treatment mice received RTX+test compound solution (50 μg/ear) on the left ear and acetone on the right ear. For intraperitoneal (i.p.) administration, 100 mg/kg test compound dissolved in 100 μL PEG 200:saline (1:1) was injected followed by a 30 minute waiting period then the standard 30 minute RTX edema induction. For oral (p.o.) administration, 10 mg/kg test compound in 100 μL PEG-200 was given to animals, then edema induced using 0.1 μg/ear RTX after a 1.5 hour waiting period. After edema induction, mice were sacrificed, and a standard disc of ear tissue was removed. Each disk of tissue was immediately weighed to the nearest 1/10th of a mg. Data were analyzed by taking the difference of each left ear from the right ear, calculating the mean+/−SEM. Statistical significance was tested by 2-sample t-test on the left/right ear weight differences of the control group vs. the experimental group.

Like-named read-outs stand apart in the source and are kept apart here.

The IC50 is the point on the concentration scale where inhibition reaches its midpoint. By inhibition is commonly meant the percentage by which the read-out fell short of the control. In general, inhibition in vivo refers to the change of the read-out against control, counted positive when it falls.

`COc1cc(C[C@@H]2CC(c3ccc(OC)c(OC)c3)COC2=O)ccc1O` (mixture of isomers) [Compound 12]: the concentration for half-maximal inhibition (IC50) in assay [1] (human promonocytic U937 cells, read-out: IC50 PDE 4) was 5.9 µM. Also, on PDE 5 (human platelets) (human platelets, cGMP substrate), the “inhibitory effect on PDE 5” value is recorded as “no significant inhibitory effects”. Moreover, the inhibition at 100 µM on PDE 5 (human platelets) lay in the range of 1 to 25%. For the same compound, the 50% inhibitory concentration (IC50) in assay [2] is 10 to 100 µM. In assay [3], this compound had an inhibition in vivo at 100 mg/kg of 61% and an inhibition in vivo at 50 µg/ear of 85%.
For `COc1cc(C[C@@H]2C[C@@H](c3ccc(OC)c(OC)c3)COC2=O)ccc1O` [Compound 30], the IC50 in assay [1] (PDE4 from U937 extract, 1 μM [3H] cAMP, X marks this range, read-out: IC50 range (μM) 1-10) fell in the range of 1 to 10 µM. Further, the half-maximal inhibitory concentration (IC50) in assay [2] lay within 10 to 100 µM. In assay [3], this compound registered an inhibition in vivo at 100 mg/kg of 28% and an inhibition in vivo at 50 µg/ear of 98%.
`COc1ccc([C@@H]2CCC(=O)OC2)cc1OC1CCCC1` [Compound 41]: the inhibition at 100 µM on PDE 5 (human platelets) was 1 to 25%.
Turning to `COc1cc(CC2C[C@@H](c3ccc(OC)c(OC4CCCC4)c3)COC2=O)ccc1O` (stereo partly drawn) [Compound 43], in assay [1] (read-out: IC50 against the catalytic activity of PDE4), the IC50 is 0.26 µM. Also, the inhibition at 100 µM at PDE 5 (human platelets) lay within 1 to 25%. Further, in assay [3], at 100 mg/kg the inhibition in vivo was 72%, 10 mg/kg produced 45% inhibition in vivo and the inhibition in vivo at 50 µg/ear worked out at 98%.
Take `COc1cc(CC2C[C@@H](c3ccc(OC)c(OC4CCCC4)c3)CNC2=O)ccc1O` (stereo partly drawn) [Compound 62]: the inhibition in vivo at 10 mg/kg in assay [3] was found to be 30%.
In assay [2] (at 12.5 μM, positive control), `COc1ccc(C2CNC(=O)C2)cc1OC1CCCC1` (stereo not drawn) [Rolipram, reference compound] displayed an inhibition at 12.5 µM of 85%.
